Reference: US4267184A, “Antiinflammatory 4,5-diaryl-2-(substituted-thio)pyrroles and their corresponding sulfoxides and sulfones” (E. I. Du Pont de Nemours and Company, priority 1980, dated 1981)

Experiments:
[1] = tested on: Adjuvant-Induced Arthritis in Rats; experiment: Established Adjuvant-Induced Arthritis in Rats; format: in vivo, Charles River Lewis male rats; details: Rattus norvegicus; for ED50: 168 h, oral gavage daily for 7 days, ED50% decrease from control paw volume
Protocol: A procedure for detecting and comparing the antiinflammatory activity of compounds in this series and standard drugs for which there is a good correlation with human efficacy is the adjuvant-induced arthritis test in rats.
(§1) The test procedures employed for determining antiinflammatory and analgesic activity are described below with test data included in Tables VII and VIII.
Charles River Lewis male rats (130-150 grams) are injected subcutaneously in plantar area of the right hind paw with 0.1 ml of adjuvant (Difco heat-killed, lyophilized Mycobacterium butyricum suspended in mineral oil 5 mg/ml). 20 Non-arthritic controls are injected with mineral oil. The animals are held for 2 weeks to allow development of arthritis. Paw volumes (uninjected, left hind paw) are measured and the adjuvant injected rats are culled and distributed to treatment groups of 10 of equal disease severity. Non-arthritic controls are distributed to 2 groups of 10. The rats are given oral doses of compound or PVA-Acacia (Polyvinyl Alcohol 1%, Gum Acacia, U.S.P. 5%, Methylparaben 0.5%) (10 ml/kg) by gavage on that day and on the 6 following days. One day after the last dose the paw volumes (uninjected, left hind paw) are measured using a Ugo Basile Volume Differential Meter Model 7101. [formula]
Dose-response regression lines of the % decrease are plotted on semi-log paper by visual fit and the ED50% decrease from control paw volume is determined by inspection.

[2] = tested on: phenylquinone writhing in mice; experiment: Phenylquinone Writhing Test (analgesic activity); format: in vivo, female white mice; details: Mus musculus, oral, phenylquinone i.p., effective analgesic dose for 50% of the mice
Excerpt: A procedure for detecting and comparing the analgesic activity of compounds in this series and standard drugs for which there is a good correlation with human efficacy is the phenylquinone writhing test.
as §1
The phenylquinone writhing test, modified from Siegmund, et al., Proc. Soc. Exp. Biol. Med. 95, 729 (1957), was employed. A test compound suspended in 1% methylcellulose was given orally to fasted (17-21 hours) female white mice, 5-20 animals per double blind test. Aqueous (0.01% phenyl-p-benzoquinone) phenylquinone was injected intraperitoneally at 24 minutes later using 0.20 ml per mouse. […] The effective analgesic dose for 50% of the mice (ED50) was calculated by the moving average method of Thompson, W. R., Bact. Rev. 11, 115-145 (1947).

[3] = Table VII, oral, read-out: percent reduction in paw volume at the indicated dose

Compound `CCOc1ccc(-c2[nH]c([S+]([O-])C(F)(F)F)cc2-c2ccc(F)cc2)cc1` (stereo not drawn) [Example 61] has an inhibition in vivo at 9 mg/kg ([1]; Table VII, oral, dose 9 mg/kg, read-out: percent reduction in paw volume at the indicated dose) of 14% and an ED50 ([2]; Table VII) greater than 130 mg/kg.

`CS(=O)(=O)c1cc(-c2ccc(Cl)cc2)c(-c2ccc(Cl)cc2)[nH]1` [Example 62] was tested, and the ED50 ([1]; Table VII) was 1.5 mg/kg and the ED50 ([2]; Table VII) was greater than 108 mg/kg.

For `CCOc1ccc(-c2[nH]c(S(C)(=O)=O)cc2-c2ccc(F)cc2)cc1` [Example 63], the inhibition in vivo at 25 mg/kg ([1]; Table VII, oral, dose 25 mg/kg, read-out: percent reduction in paw volume at the indicated dose) was 34% and the ED50 ([2]; Table VII) was greater than 108 mg/kg.

`CS(=O)(=O)c1cc(-c2ccc(F)cc2)c(-c2ccc(F)cc2)[nH]1` [Example 64] gave an inhibition in vivo at 27 mg/kg [1, 3] of 25% and an ED50 ([2]; Table VII) greater than 108 mg/kg.

`CCS(=O)(=O)c1cc(-c2ccc(Cl)cc2)c(-c2ccc(Cl)cc2)[nH]1` [Example 65] gave an inhibition in vivo at 27 mg/kg [1, 3] of 23% and an ED50 ([2]; Table VII) greater than 108 mg/kg.

`CS(=O)(=O)c1cc(-c2ccc(Cl)cc2)c(-c2ccc(F)cc2)[nH]1` [Example 66] showed an ED50 ([1]; Table VII) of 27 mg/kg and an ED50 ([2]; Table VII) greater than 135 mg/kg.

For `CS(=O)(=O)c1cc(-c2ccc(F)cc2)c(-c2ccc(Cl)cc2)[nH]1` [Example 67], the ED50 ([1]; Table VII) was 50 mg/kg and the ED50 ([2]; Table VII) was 38 mg/kg.

`COc1ccc(-c2[nH]c(S(C)(=O)=O)cc2-c2ccc(F)cc2)cc1` [Example 68] was tested, and the inhibition in vivo at 27 mg/kg [1, 3] was 34% and the ED50 ([2]; Table VII) was 18 mg/kg.

`COc1ccc(-c2[nH]c(S(C)(=O)=O)cc2-c2ccc(Cl)cc2)cc1` [Example 69] gave an ED50 ([1]; Table VII) of 13 mg/kg and an ED50 ([2]; Table VII) of 38 mg/kg.

For `CS(=O)(=O)c1cc(-c2ccc(Cl)cc2)c(-c2ccccc2)[nH]1` [Example 71], the inhibition in vivo at 27 mg/kg [1, 3] was 23% and the ED50 ([2]; Table VII) was greater than 108 mg/kg.

`Cc1ccc(-c2cc(S(C)(=O)=O)[nH]c2-c2ccc(C)cc2)cc1` [Example 72] showed an ED50 ([1]; Table VII) of 90 mg/kg and an ED50 ([2]; Table VII) of 7.2 mg/kg.

Work on `CC(=O)n1c(SC(F)(F)F)cc(-c2ccc(F)cc2)c1-c1ccc(F)cc1` [Example 73, 1-Acetyl-4,5-bis(4-fluorophenyl)-2-(trifluoromethylthio)pyrrole] yielded an ED50 ([1]; Table VIII) of 4 mg/kg and an ED50 ([2]; Table VIII) greater than 108 mg/kg.

`Cn1c(SC(F)(F)F)cc(-c2ccc(F)cc2)c1-c1ccc(F)cc1` [Example 74, 1-Methyl-4,5-bis(4-fluorophenyl)-2-(trifluoromethylthio)pyrrole] gave an ED50 ([1]; Table VIII) of 1.1 mg/kg and an ED50 ([2]; Table VIII) greater than 108 mg/kg.

Compound `CCOC(=O)n1c(SC(F)(F)F)cc(-c2ccc(F)cc2)c1-c1ccc(F)cc1` [Example 75, 1-Ethoxycarbonyl-4,5-bis(4-fluorophenyl)-2-(trifluoromethylthio)pyrrole] has an ED50 ([1]; Table VIII) of 1.9 mg/kg and an ED50 ([2]; Table VIII) greater than 108 mg/kg.

`O=C(c1ccccc1)n1c(SC(F)(F)F)cc(-c2ccc(F)cc2)c1-c1ccc(F)cc1` [Example 76, 1-Benzoyl-4,5-bis(4-fluorophenyl)-2-(trifluoromethylthio)pyrrole] showed an ED50 ([1]; Table VIII) of 6.6 mg/kg and an ED50 ([2]; Table VIII) greater than 108 mg/kg.
